From US20250204532A1, “Treatment Liquid for Cleaning an Implant Part” (Zyfoma GmbH, priority 2013, published 2025)

Test system: biofilm
Experiment: electrolytic cleaning of biofilm-contaminated implant surface (laboratory test)
Conditions: implants greatly covered and contaminated with a biofilm, on which tartar has also developed; relatively low dosages
From the text: For detaching the bacteria or germs, respectively their residues or fragments, from the surface, it is provided to wet the latter with a conductive treatment liquid, charging it with current, possibly in the form of pulsed current impulses. […] Here, e.g. oil and/or chlorhexidine can be used. Furthermore, ionic liquids, which preferably contain I^−, Cl^− and/or OH^− ions, can also be used.

## CC(=O)O [ethanoic acid]
  cleaning success: good cleaning success
